Earlier results in patent publication US20260144768A1, “MODIFIED RELEASE GAMMA-HYDROXYBUTYRATE FORMULATIONS HAVING IMPROVED PHARMACOKINETICS” (Flamel Ireland Limited, priority 2022, published 2026).
Like-named read-outs stand apart in the source and are kept apart here.

Columns and labels:
plasma proteins = conditions: GHB 3 mcg/mL to 300 mcg/mL
[1] = not given; remark: listed apart in the source
rat [2] = conditions: 2-year study
mouse = conditions: 2-year study
CYP3A = conditions: up to 3 mM (378 mcg/mL)
CYP2C9 = CYP2C9 (Homo sapiens, UniProt P11712); conditions: up to 3 mM (378 mcg/mL)
rat [3] = conditions: in vivo
CYP1A2 = molecular target: T1, CYP1A2 (Homo sapiens, UniProt P05177); conditions: up to 3 mM (378 mcg/mL)
T1 sequence (P05177 1-516): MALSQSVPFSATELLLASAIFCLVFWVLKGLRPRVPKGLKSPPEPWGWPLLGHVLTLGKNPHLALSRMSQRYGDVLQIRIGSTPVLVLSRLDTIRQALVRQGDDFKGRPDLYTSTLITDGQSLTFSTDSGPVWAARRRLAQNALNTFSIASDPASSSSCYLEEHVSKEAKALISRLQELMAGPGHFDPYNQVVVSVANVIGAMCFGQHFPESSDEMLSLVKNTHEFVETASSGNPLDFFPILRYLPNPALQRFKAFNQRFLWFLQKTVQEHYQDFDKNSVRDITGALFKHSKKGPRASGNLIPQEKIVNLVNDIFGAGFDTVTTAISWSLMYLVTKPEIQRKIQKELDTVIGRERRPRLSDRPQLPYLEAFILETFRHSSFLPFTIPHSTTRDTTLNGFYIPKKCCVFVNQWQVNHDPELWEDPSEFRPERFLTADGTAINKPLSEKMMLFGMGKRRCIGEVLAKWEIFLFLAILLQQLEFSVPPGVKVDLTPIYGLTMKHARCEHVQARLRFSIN

rats [4] = test system: rats
CYP2C19 = CYP2C19 (Homo sapiens, UniProt P33261); conditions: up to 3 mM (378 mcg/mL)
rats [5] = conditions: 150, 350, or 1,000 mg/kg/day oral
CYP2E1 = CYP2E1 (Homo sapiens, UniProt P05181); conditions: up to 3 mM (378 mcg/mL)
bacterial gene mutation = conditions: in vitro
rats [6] = test system: rats; remark: listed apart in the source
pregnant rabbits = conditions: 300, 600, or 1,200 mg/kg/day oral
[7] = 6 g per day (2 × 3 g) with ibuprofen 800 mg/dose four times per day
pregnant rats = conditions: 150, 350, or 1,000 mg/kg/day oral
mammalian cells = conditions: in vitro
CYP2D6 = CYP2D6 (Homo sapiens, UniProt P10635); conditions: up to 3 mM (378 mcg/mL)
Sequence of CYP2D6 (P10635 whole entry): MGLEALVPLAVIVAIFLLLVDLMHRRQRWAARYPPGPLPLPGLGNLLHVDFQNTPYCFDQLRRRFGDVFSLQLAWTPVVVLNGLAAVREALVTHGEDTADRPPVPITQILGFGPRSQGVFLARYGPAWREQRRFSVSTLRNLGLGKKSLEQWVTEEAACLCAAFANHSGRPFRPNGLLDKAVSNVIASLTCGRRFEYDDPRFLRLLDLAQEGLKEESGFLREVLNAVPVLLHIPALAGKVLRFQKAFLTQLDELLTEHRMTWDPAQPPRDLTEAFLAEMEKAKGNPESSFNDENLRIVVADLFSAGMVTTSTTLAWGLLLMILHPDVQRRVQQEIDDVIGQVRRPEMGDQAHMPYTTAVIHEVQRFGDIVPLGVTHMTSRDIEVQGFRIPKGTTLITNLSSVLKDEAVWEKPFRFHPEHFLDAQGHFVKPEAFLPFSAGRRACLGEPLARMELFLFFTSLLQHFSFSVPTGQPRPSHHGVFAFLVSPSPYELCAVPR

Sequence of CYP2C19 (P33261 whole entry): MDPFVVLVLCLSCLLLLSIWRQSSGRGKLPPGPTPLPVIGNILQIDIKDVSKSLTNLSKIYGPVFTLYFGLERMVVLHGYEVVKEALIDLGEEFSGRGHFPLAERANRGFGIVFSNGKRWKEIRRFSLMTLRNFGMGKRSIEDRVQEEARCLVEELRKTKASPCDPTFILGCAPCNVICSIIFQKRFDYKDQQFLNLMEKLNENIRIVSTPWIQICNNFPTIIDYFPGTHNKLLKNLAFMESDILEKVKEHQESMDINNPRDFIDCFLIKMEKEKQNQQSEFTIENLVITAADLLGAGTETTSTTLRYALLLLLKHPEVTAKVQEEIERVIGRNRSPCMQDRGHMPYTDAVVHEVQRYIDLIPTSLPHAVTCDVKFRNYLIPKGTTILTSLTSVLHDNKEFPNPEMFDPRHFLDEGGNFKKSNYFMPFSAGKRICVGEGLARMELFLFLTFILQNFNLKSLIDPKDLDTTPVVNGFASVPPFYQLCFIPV
Sequence of CYP2E1 (P05181 whole entry): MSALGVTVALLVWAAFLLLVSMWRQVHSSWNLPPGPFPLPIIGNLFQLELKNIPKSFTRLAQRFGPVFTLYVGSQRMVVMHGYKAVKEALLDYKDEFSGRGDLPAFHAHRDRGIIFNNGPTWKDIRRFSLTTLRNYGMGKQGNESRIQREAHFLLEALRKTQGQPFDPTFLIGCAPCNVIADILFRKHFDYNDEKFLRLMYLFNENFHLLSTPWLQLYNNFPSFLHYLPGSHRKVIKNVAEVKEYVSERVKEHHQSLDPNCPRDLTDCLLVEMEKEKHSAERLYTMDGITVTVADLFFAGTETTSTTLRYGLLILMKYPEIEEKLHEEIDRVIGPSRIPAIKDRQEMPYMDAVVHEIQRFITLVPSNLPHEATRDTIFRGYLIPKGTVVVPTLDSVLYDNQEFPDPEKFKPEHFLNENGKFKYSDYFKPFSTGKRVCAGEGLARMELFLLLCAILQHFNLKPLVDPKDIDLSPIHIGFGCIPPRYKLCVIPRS
Sequence of CYP2C9 (P11712 whole entry): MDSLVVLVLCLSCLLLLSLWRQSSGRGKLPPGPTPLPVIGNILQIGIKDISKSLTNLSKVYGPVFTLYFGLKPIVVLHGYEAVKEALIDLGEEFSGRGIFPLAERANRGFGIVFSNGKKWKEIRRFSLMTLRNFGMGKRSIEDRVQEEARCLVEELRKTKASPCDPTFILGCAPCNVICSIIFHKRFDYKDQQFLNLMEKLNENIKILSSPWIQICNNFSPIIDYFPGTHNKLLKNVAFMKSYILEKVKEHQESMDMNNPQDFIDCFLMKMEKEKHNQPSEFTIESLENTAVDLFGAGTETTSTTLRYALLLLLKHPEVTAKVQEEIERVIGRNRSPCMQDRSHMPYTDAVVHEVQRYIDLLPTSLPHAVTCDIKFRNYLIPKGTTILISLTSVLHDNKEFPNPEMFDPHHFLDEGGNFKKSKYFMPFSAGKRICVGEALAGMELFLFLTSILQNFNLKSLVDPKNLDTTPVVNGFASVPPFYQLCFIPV

For `O=C(O)CCCO` [GHB, gamma-hydroxybutyrate], the “Bound to plasma proteins” value (plasma proteins) is given as “less than 1%”, the Apparent oral clearance (Child's Class A) is given as 4.5 mL/min/kg and the “Mean t1/2” value (Child's Class A) is given as 32 min. For the same compound, the Apparent oral clearance (Child's Class C) was 4.1 mL/min/kg, the “Mean t1/2” value (Child's Class C) was 59 min and the “Mean t1/2” value (control patients) was 22 min. The Apparent oral clearance (healthy adults) was 9.1 mL/min/kg, the “Apparent volume of distribution” value ([1]; in vivo) was 0.19 to 0.384 L/kg and the Elimination half-life ([1]; in vivo) was 30 to 60 min. The “Unchanged drug in human urine” value ([1]; within 6 to 8 hours after dosing) was “less than 5%”.

For `O=C1CCCO1` [gamma-butyrolactone], the Carcinogenic activity (rat [2]) is given as “no clear evidence of carcinogenic activity” and the Carcinogenic activity (mouse) is given as “no clear evidence of carcinogenic activity”.

In the case of `O=C([O-])CCCO.[Na+]` [sodium oxybate, sodium 4-hydroxybutyrate], the “Inhibition of CYP3A activity” value (CYP3A) is given as “does not significantly inhibit”, the “Inhibition of CYP2C9 activity” value (CYP2C9) is given as “does not significantly inhibit” and the Micronucleus (rat [3]) is given as “negative”. The “Inhibition of CYP1A2 activity” value (CYP1A2) was “does not significantly inhibit”, the “Plasma exposure (AUC) relative to humans at the MRHD of 9 g per night” value (rats [4]; highest dose tested) was 2 times and the Tumors (rats [4]; oral doses up to 1,000 mg/kg/day) was “no increase in tumors”. The “Inhibition of CYP2C19 activity” value (CYP2C19) was “does not significantly inhibit”, the Effects on fertility (rats [5]) was “no adverse effects on fertility” and the “Inhibition of CYP2E1 activity” value (CYP2E1) was “does not significantly inhibit”. For the same compound, the Bacterial gene mutation (bacterial gene mutation) was “negative”, the Mortality (rats [6]; 0, 100, 300, or 900 mg/kg/day, two highest doses) was “mortality was observed” and the “Findings at the highest dose tested” value (rats [6]; 900 mg/kg/day) was “Reduced body weight gain in males and females and delayed sexual maturation in males”. For the same compound, the Developmental toxicity (pregnant rabbits) was “no clear evidence of developmental toxicity”, the “Systemic exposure to GHB on co-administration” value [7] was “comparable” and the Developmental toxicity (pregnant rats) was “no clear evidence of developmental toxicity”. The Chromosomal aberration (mammalian cells) was “negative” and the “Inhibition of CYP2D6 activity” value (CYP2D6) was “does not significantly inhibit”.
